# Tests used:
# Myd88 = experiment: Mice study #1: Myd88 immunohistochemistry of gingival tissue; type: in vivo; conditions: BALB/c
# Method: Mice study #1: Pilot study to establish DIGO disease model. Sterile sutures (5-0 Silk thread, Ethicon, Johnson & Johnson, Somerville, NJ) were placed around the lower central incisors on both sides in BALB/c (Male) mice anaesthetized conditions using Ketamine (90-100 mg/kg bodyweight) and Xylazine (5-10 mg/kg body weight) using a 0.1 cc syringe with a 25-gauge needle intraperitoneally (FIG. 37). Mice were checked daily for intact suture placement and replaced when necessary. […] The controls were injected with the vehicle used to dissolve the drug, which was 10% ethanol and 10% polyethylene glycol castor oil (both Sigma-Aldrich, St. Louis MO) in distilled water. For preventive treatments, Folic acid was supplemented in the drinking water (10 μg/ml) ad libitum and methylcellulose gel with the Folic acid (100 μg/ml) microspheres was applied daily on the anterior gingiva. The three groups in this study were: • 1. Control group (n=1): no interventions were performed • 2. […] Treatments were continued for 28 days and digital images were captured over the time course.
# Histopathology and Immunohistochemistry. […]
# Immunohistochemical analysis. […] Then, we examined the histopathological images of the mice model type BALB/c and we assessed the expressions of the Myd88 in the disease group in comparison to the negative control and Folic acid treated group. […]
# LITAF = experiment: Western blot of LITAF in oral keratinocytes; type: cell-based, human
# Method: Cell Culture. Normal human oral keratinocytes (NOKSI) and fibroblast (HOF) cells were maintained in Dulbecco […] Eagle's medium (Sigma-Aldrich, St. Louis, MO, USA) supplemented with 10% fetal bovine serum (Atlas Bio-logicals, Fort Collins, CO, USA) and 100 units/mL penicillin and 100 μg/mL streptomycin (LifeTechnologies, Carlsbad, CA, USA). Cells were grown in incubator at 37° C. in a humidified chamber with 5% CO2.
# Drugs treatment in cell culture. The cells were treated alone or with different combination of lipopolysaccharide, cyclosporine, phenytoin, and folic acid. All of them were purchased from Sigma-Aldrich (St. Louis, MO, USA). Each of them were used from 0 μg/ml to 40 μg/ml and the optimum concentration were found 10 μg/ml.
# Western blot analysis. Cells were seeded in 60 mm plates with a density of 5×10^5 cells per plate and washed briefly with Dulbecco's phosphate-buffered saline (Gibco, Waltham, MA, USA). Whole cell lysates were prepared using RIPA lysis buffer containing protease inhibitor cocktail (Sigma-Aldrich). Total protein concentration was determined using the BCA reagent (Pierce, Waltham, MA, USA). 20 μg of total protein were resolved on sodium dodecyl sulfate-polyacrylamide gel electrophoresis and transferred to polyvinylidenedifluoride membrane and immunoblotted. The blots were incubated for 1 h in 1% bovine serum albumin (BSA) (Sigma-Aldrich) to block the non-specific bindings followed by over-night incubation in primary antibodies (MyD88 and pP65 from Cell Signaling Technology, and human LITAF ThermoFisher Sigma) at 4° C. on shaker. Next day, blots were washed for three times (10 min each) in Tris-buffered saline containing 1% Tween20 (TBST) followed by incubation with secondary antibody (Goat anti-rabbit IgG HRP) with 1:10,000 dilution for 1 h. Following washes, bands were visualized using gel documentation Imaging Systems (BioRad). The band intensities were quantified using software ImageJ (NIH, USA) and relative protein levels were normalized by β-actin (Cell Signaling). To perform the western blot of animal tissue samples, the gingival tissues were collected from both BABLB/c and C57BL/6 mice studies. The soft tissues were separated from the mandibular bone and then crunched. The Bradford assay was performed to measure the protein concentration of each sample. After normalization, 20 μg of whole tissue protein lysate were proceeded for western blot analysis.
smiles,measurement,setting,value
Nc1nc2ncc(CNc3ccc(C(=O)N[C@@H](CCC(=O)O)C(=O)O)cc3)nc2c(=O)[nH]1 [folic acid],"Myd88 expression in the epithelium, disease group relative to folic acid prevention group",Myd88,significantly higher compared to the prevention and control groups
same,LITAF protein level,"LITAF; LPS, CSA, FA each 10 μg/ml, 24 hours",inhibits CSA-induced expression
same,amount of LITAF protein,"LITAF; LPS, Phe, FA each 10 μg/ml, 24 hours",LITAF expression is reduced
same,amount of LITAF protein,"LITAF; different concentrations of folic acid (2.5-40 μg/ml), 24 hours",dose dependent effect
same,LITAF by western blot,"LITAF; normal oral keratinocyte cells, FIG. 35",downregulation

# From patent US20260000496A1, “MATERIALS AND METHODS FOR DRUG-INDUCED GINGIVAL OVERGROWTH” (Optimed Technology, Inc., priority 2019, published 2026)
